{"source": "ChEMBL document CHEMBL1275245", "about": "“Clinical and toxicodynamic evidence that high-dose pyrazinamide is not more hepatotoxic than the low doses currently used” (Antimicrob Agents Chemother, 2010)", "key": {"Homo sapiens [1]": {"species": "Homo sapiens", "experiment": "Toxicity in TB patients assessed as death", "type": "organism-based", "settings": "in vivo"}, "Homo sapiens [2]": {"test_system": "Homo sapiens", "experiment": "Hepatotoxicity in TB patients assessed as elevated aspartate aminotransferase level at 30 g/kg", "type": "toxicity, organism-based", "settings": "in vivo, 30000 mg/kg"}, "Homo sapiens [3]": {"test_system": "Homo sapiens", "experiment": "Hepatotoxicity in TB patients assessed as abnormal flocculation at 3.7 g/kg/day measured after 87 days", "type": "toxicity, organism-based", "settings": "in vivo, 3700 mg/kg, 2088 h"}, "Homo sapiens [4]": {"species": "Homo sapiens", "experiment": "Toxicity in TB patients assessed as arthralgia", "type": "organism-based", "settings": "in vivo"}, "Homo sapiens [5]": {"test_system": "Homo sapiens", "experiment": "Hepatotoxicity in TB patients assessed as abnormal flocculation at 3.7 g/kg/day measured after 52 days", "type": "toxicity, organism-based", "settings": "in vivo, 3700 mg/kg, 1248 h"}, "Homo sapiens [6]": {"test_system": "Homo sapiens", "experiment": "Hepatotoxicity in TB patients assessed as jaundice at 3.7 g/kg/day measured after 87 days", "type": "toxicity, organism-based", "settings": "in vivo, 3700 mg/kg, 2088 h"}, "Homo sapiens [7]": {"test_system": "Homo sapiens", "experiment": "Hepatotoxicity in TB patients assessed as jaundice at 3.7 g/kg/day measured after 52 days", "type": "toxicity, organism-based", "settings": "in vivo, 3700 mg/kg, 1248 h"}, "Homo sapiens [8]": {"test_system": "Homo sapiens", "experiment": "Pharmacokinetic parameter in TB patient serum assessed as percentage of time the compound persisted above 5 mg/L at 1500 mg/kg daily", "type": "ADME, organism-based", "design": "dose 1500 mg/kg", "settings": "in vivo"}, "Homo sapiens [9]": {"test_system": "Homo sapiens", "experiment": "Pharmacokinetic parameter in TB patient serum assessed as percentage of time the compound persisted above 5 mg/L at 3000 mg/kg administered alternate day", "type": "ADME, organism-based", "design": "dose 3000 mg/kg", "settings": "in vivo"}, "Homo sapiens [10]": {"species": "Homo sapiens", "experiment": "Pharmacokinetic parameter in TB patient serum assessed as percentage of time the compound persisted above 5 mg/L at 500 mg/ kg TID", "type": "ADME, organism-based", "design": "dose 500 mg/ kg", "settings": "in vivo"}, "Homo sapiens [11]": {"test_system": "Homo sapiens", "experiment": "Pharmacokinetic parameter in TB patient serum assessed as percentage of time the compound persisted above 10 mg/L at 3000 mg/kg administered alternate day", "type": "ADME, organism-based", "design": "dose 3000 mg/kg", "settings": "in vivo"}, "Homo sapiens [12]": {"test_system": "Homo sapiens", "experiment": "Pharmacokinetic parameter in TB patient serum assessed as percentage of time the compound persisted above 10 mg/L at 1500 mg/kg daily", "type": "ADME, organism-based", "design": "dose 1500 mg/kg", "settings": "in vivo"}, "Homo sapiens [13]": {"species": "Homo sapiens", "experiment": "Pharmacokinetic parameter in TB patient serum assessed as percentage of time the compound persisted above 10 mg/L at 500 mg/ kg TID", "type": "ADME, organism-based", "design": "dose 500 mg/ kg", "settings": "in vivo"}, "Homo sapiens [14]": {"test_system": "Homo sapiens", "experiment": "Pharmacokinetic parameter in TB patient serum assessed as percentage of time the compound persisted above 20 mg/L at 3000 mg/kg administered alternate day", "type": "ADME, organism-based", "design": "dose 3000 mg/kg", "settings": "in vivo"}, "Homo sapiens [15]": {"test_system": "Homo sapiens", "experiment": "Pharmacokinetic parameter in TB patient serum assessed as percentage of time the compound persisted above 20 mg/L at 1500 mg/kg daily", "type": "ADME, organism-based", "design": "dose 1500 mg/kg", "settings": "in vivo"}, "[16]": {"experiment": "Cmax in TB patient serum at 3000 mg/kg administered alternate day", "type": "ADME, organism-based", "design": "dose 3000 mg/kg", "settings": "human"}, "Homo sapiens [17]": {"species": "Homo sapiens", "experiment": "Pharmacokinetic parameter in TB patient serum assessed as percentage of time the compound persisted above 20 mg/L at 500 mg/ kg TID", "type": "ADME, organism-based", "design": "dose 500 mg/ kg", "settings": "in vivo"}, "[18]": {"experiment": "Cmax in TB patient serum at 500 mg/kg TID", "type": "ADME, organism-based", "design": "dose 500 mg/kg", "settings": "human"}, "[19]": {"experiment": "Cmax in TB patient serum at 1500 mg/kg daily", "type": "ADME, organism-based", "design": "dose 1500 mg/kg", "settings": "human"}, "[20]": {"experiment": "AUC (0 to 168 hrs) in serum of TB patient at 1500 mg/kg daily", "type": "ADME, organism-based", "design": "time < 168 hr, dose 1500 mg/kg", "settings": "human"}, "[21]": {"experiment": "AUC (0 to 168 hrs) in serum of TB patient at 3000 mg/kg administered alternate day", "type": "ADME, organism-based", "design": "time < 168 hr, dose 3000 mg/kg", "settings": "human"}, "[22]": {"experiment": "AUC (0 to 168 hrs) in TB patient serum at 500 mg/ kg TID", "type": "ADME, organism-based", "design": "time < 168 hr, dose 500 mg/ kg", "settings": "human"}, "[23]": {"experiment": "Systemic clearance in TB patient serum at 1500 mg/kg daily", "type": "ADME, organism-based", "design": "dose 1500 mg/kg", "settings": "human"}, "[24]": {"experiment": "Systemic clearance in TB patient serum at 3000 mg/kg administered alternate day", "type": "ADME, organism-based", "design": "dose 3000 mg/kg", "settings": "human"}, "[25]": {"experiment": "Systemic clearance in TB patient serum at 500 mg/ kg TID", "type": "ADME, organism-based", "design": "dose 500 mg/ kg", "settings": "human"}, "Homo sapiens [26]": {"test_system": "Homo sapiens", "experiment": "Hepatotoxicity in TB patients assessed as elevated aspartate aminotransferase level at 40 g/kg", "type": "toxicity, organism-based", "settings": "in vivo, 40000 mg/kg"}, "Homo sapiens [27]": {"test_system": "Homo sapiens", "experiment": "Hepatotoxicity in TB patients assessed as elevated aspartate aminotransferase level at 60 g/kg", "type": "toxicity, organism-based", "settings": "in vivo, 60000 mg/kg"}}}
{"compound": "NC(=O)c1cnccn1", "note": "[PYRAZINAMIDE]", "values": [{"measurement": "Activity", "setting": "Homo sapiens [1]", "result": "Toxic"}, {"measurement": "Activity", "setting": "Homo sapiens [2]", "result": "Non-toxic"}, {"measurement": "Activity", "setting": "Homo sapiens [3]", "result": "Non-toxic"}, {"measurement": "Activity", "setting": "Homo sapiens [4]", "result": "Toxic"}, {"measurement": "Activity", "setting": "Homo sapiens [5]", "result": "Non-toxic"}, {"measurement": "Activity", "setting": "Homo sapiens [6]", "result": "Non-toxic"}, {"measurement": "Activity", "setting": "Homo sapiens [7]", "result": "Non-toxic"}, {"measurement": "Activity", "setting": "Homo sapiens [8]", "result": 74, "unit": "%"}, {"measurement": "Activity", "setting": "Homo sapiens [9]", "result": 48, "unit": "%"}, {"measurement": "Activity", "setting": "Homo sapiens [10]", "result": 92, "unit": "%"}, {"measurement": "Activity", "setting": "Homo sapiens [11]", "result": 35, "unit": "%"}, {"measurement": "Activity", "setting": "Homo sapiens [12]", "result": 49, "unit": "%"}, {"measurement": "Activity", "setting": "Homo sapiens [13]", "result": 67, "unit": "%"}, {"measurement": "Activity", "setting": "Homo sapiens [14]", "result": 23, "unit": "%"}, {"measurement": "Activity", "setting": "Homo sapiens [15]", "result": 24, "unit": "%"}, {"measurement": "Cmax", "setting": "[16]", "result": 67500, "unit": "ng/mL"}, {"measurement": "Activity", "setting": "Homo sapiens [17]", "result": 9, "unit": "%"}, {"measurement": "Cmax", "setting": "[18]", "result": 20200, "unit": "ng/mL"}, {"measurement": "Cmax", "setting": "[19]", "result": 33800, "unit": "ng/mL"}, {"measurement": "AUC at 168 h", "setting": "[20]", "result": 2270, "unit": "µg·h/mL"}, {"measurement": "AUC(0-t) at 168 h", "setting": "[21]", "result": 2160, "unit": "µg·h/mL"}, {"measurement": "AUC at 168 h", "setting": "[22]", "result": 2190, "unit": "µg·h/mL"}, {"measurement": "clearance", "setting": "[23]", "result": 66.2, "unit": "mL/min"}, {"measurement": "clearance", "setting": "[24]", "result": 69.3, "unit": "mL/min"}, {"measurement": "clearance", "setting": "[25]", "result": 68.5, "unit": "mL/min"}, {"measurement": "Activity", "setting": "Homo sapiens [26]", "result": "Non-toxic"}, {"measurement": "Activity", "setting": "Homo sapiens [27]", "result": "Non-toxic"}]}
